For data set [1] the following is noted: background statement; cited from earlier work.
Data set [2] can be described thus: Dissolution studies in simulated gastric and intestinal fluids. The format is physicochemical.
Experimental: The formulation was split into 2 equal aliquots and lyophilized. Simulated gastric and intestinal fluids were prepared, with the simulated gastric fluid consisting of HCl, NaCl, Pepsin, and water while the simulated intestinal fluid consisted of NaOH, KH2PO4, and water. […] This experiment was protected from light. At various time points, 0.5 mL aliquots of fluid were removed from the chambers and analyzed via HPLC. The volume removed was replaced with fresh simulated fluid.
The conditions of data set [3]: background statement; cited from earlier work. This is another data set of the same source.
Data set [4] can be described thus: Stability studies: HPLC of resveratrol remaining in aqueous solution. The format is physicochemical. As for the experimental part:
The sample can then be analyzed via HPLC to determine the amount of resveratrol in the composition. This amount of resveratrol can be compared to the initially determined amount. This comparison amount can be used to determine the percent degradation.
Stability was determined by HPLC analysis of a 1% PAMAM-G4 amine dendrimer-resveratrol complex at 21° C. (ambient temperature), 37° C., and 4° C. […]

Each structure is given as a SMILES string. Some results are limits rather than exact numbers.

On to `Oc1ccc(C=Cc2cc(O)cc(O)c2)cc1` [Resveratrol, 3,4′,5-trihydroxystilbene], for which, in data set [1], the half-life is 8 to 14 min, the metabolic stability entry is “poor” and the oral bioavailability entry is “low”. Also, in data set [2] (simulated gastric fluid), the “time to dissolution (still dissolving at final time point)” value was above 4.5 h. Further, the “time to dissolution (still dissolving at final time point)” value in data set [2] (simulated intestinal fluid) is above 4.5 h. For the same compound, the aqueous solubility in data set [3] is 0.015 to 0.04 µg/mL. Also, the drug remained intact result in data set [4] (4° C., day 29, aqueous solution) is listed as “no drug remained”. Besides, the resveratrol remained intact entry in data set [4] (ambient temperature (21° C.), day 4, aqueous solution) is listed as “completely degraded”.

Broadly, the half-life is how long it takes for the measured level to halve. As usually defined, the aqueous solubility is the dissolved amount per volume that the medium holds.
